Laboratory results from patent publication US20080200454A1, “CARBON-LINKED TETRAHYDRO-PYRAZOLO-PYRIDINE MODULATORS OF CATHEPSIN S” (priority 2007, published 2008).
pIC50: −log10 of the molar value.

The compounds below were run against Recombinant human cathepsin S (CatS) (Homo sapiens, UniProt P25774) (assay: Recombinant human cathepsin S (CatS) inhibition assay, fluorogenic substrate Z-Valine-Valine-Arginine-AMC). Settings: not given.
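Also: Baculovirus-expressed CatS in pH 5.0 sodium acetate buffer with DTT and NaCl, fluorescence read each minute over 20 min, inhibition derived from rate slope.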

Chain of Recombinant human cathepsin S (CatS) (P25774 115-331): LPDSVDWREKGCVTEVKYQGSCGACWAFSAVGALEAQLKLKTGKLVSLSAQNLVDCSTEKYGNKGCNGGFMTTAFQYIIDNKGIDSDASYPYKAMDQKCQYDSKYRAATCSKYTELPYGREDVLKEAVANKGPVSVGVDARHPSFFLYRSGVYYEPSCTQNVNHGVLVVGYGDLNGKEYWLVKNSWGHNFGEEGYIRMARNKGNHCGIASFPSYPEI

pIC50	Structure (SMILES)
6.92	NC(=O)N1CCc2c(c(-c3ccc(Cl)c(CCc4ccc(CNCc5ccc(Cl)cc5)cc4)c3)nn2CCCN2CCOCC2)C1 [Example 476, 3-(4-Chloro-3-{2-[4-({[(4-chlorophenyl)methyl]amino}methyl)phenyl]ethyl}phenyl)-1-(3-morpholin-4-ylpropyl)-1,4,6,7-tetrahydro-5H-pyrazolo[4,3-c]pyridine-5-carboxamide]
6.64	CS(=O)(=O)N1CCc2c(c(-c3ccc(Cl)c(CCc4ccc(Cl)cc4)c3)nn2CCCN2CCOCC2)C1 [Example 57, 3-{4-Chloro-3-[2-(4-chloro-phenyl)-ethyl]-phenyl}-5-methanesulfonyl-1-(3-morpholin-4-yl-propyl)-4,5,6,7-tetrahydro-1H-pyrazolo[4,3-c]pyridine]
7.40	CC(NCc1ccc(C#Cc2cc(-c3nn(CCCN4CCN(c5ccccn5)CC4)c4c3CN(S(C)(=O)=O)CC4)ccc2Cl)cc1)c1ccccc1 (stereo not drawn) [Example 219, N-({4-[(2-Chloro-5-{5-(methylsulfonyl)-1-[3-(4-pyridin-2-ylpiperazin-1-yl)propyl]-4,5,6,7-tetrahydro-1H-pyrazolo[4,3-c]pyridin-3-yl}phenyl)ethynyl]phenyl}methyl)-1-phenylethanamine]
6.54	CS(=O)(=O)N1CCc2c(c(-c3ccc(Cl)c(C#Cc4ccc(CO)cc4)c3)nn2CCCN2CCOCC2)C1 [Example 5, (4-{2-Chloro-5-[5-methanesulfonyl-1-(3-morpholin-4-yl-propyl)-4,5,6,7-tetrahydro-1H-pyrazolo[4,3-c]pyridin-3-yl]-phenylethynyl}-phenyl)-methanol]
7.70	C[C@H]1COCCN1CCCn1nc(-c2ccc(Cl)c(C#Cc3ccc(Cl)c(CNCCCO)c3)c2)c2c1CCN(C(=O)C(N)=O)C2 [Example 271, (S)-2-{3-(4-Chloro-3-{4-chloro-3-[(3-hydroxy-propylamino)-methyl]-phenylethynyl}-phenyl)-1-[3-(3-methyl-morpholin-4-yl)-propyl]-1,4,6,7-tetrahydro-pyrazolo[4,3-c]pyridin-5-yl}-2-oxo-acetamide]
7.40	CC(NCc1ccc(C#Cc2cc(-c3nn(CCCN4CCN(c5ccccc5)CC4)c4c3CN(S(C)(=O)=O)CC4)ccc2Cl)cc1)c1ccccc1 (stereo not drawn) [Example 478, N-({4-[(2-Chloro-5-{5-(methylsulfonyl)-1-[3-(4-phenylpiperazin-1-yl)propyl]-4,5,6,7-tetrahydro-1H-pyrazolo[4,3-c]pyridin-3-yl}phenyl)ethynyl]phenyl}methyl)-1-phenylethanamine]
8.00	C[C@H]1COCCN1CCCn1nc(-c2ccc(Cl)c(C#Cc3ccc(Cl)c(CNC[C@@H]4CCCO4)c3)c2)c2c1CCN(C(=O)C(N)=O)C2 [Example 267, 2-{3-[4-Chloro-3-(4-chloro-3-{[((2S)-tetrahydro-furan-2-ylmethyl)-amino]-methyl}-phenylethynyl)-phenyl]-1-[3-((3S)-3-methyl-morpholin-4-yl)-propyl]-1,4,6,7-tetrahydro-pyrazolo[4,3-c]pyridin-5-yl}-2-oxo-acetamide]
7.40	CS(=O)(=O)N1CCc2c(c(-c3ccc(Cl)c(C#Cc4ccc(CNCc5ccc(Cl)cc5)cc4)c3)nn2CCCN2CCN(c3ccc(O)cc3)CC2)C1 [Example 410, 4-(4-{3-[3-(4-Chloro-3-{[4-({[(4-chlorophenyl)methyl]amino}methyl)phenyl]ethynyl}phenyl)-5-(methylsulfonyl)-4,5,6,7-tetrahydro-1H-pyrazolo[4,3-c]pyridin-1-yl]propyl}piperazin-1-yl)phenol]
6.59	NCC(=O)N1CCc2c(c(-c3ccc(Cl)c(C#Cc4ccc(CNCc5ccc(Cl)cc5)cc4)c3)nn2CCCN2CCOCC2)C1 [Example 154, 2-[3-(4-Chloro-3-{[4-({[(4-chlorophenyl)methyl]amino}methyl)phenyl]ethynyl}phenyl)-1-(3-morpholin-4-ylpropyl)-1,4,6,7-tetrahydro-5H-pyrazolo[4,3-c]pyridin-5-yl]-2-oxoethanamine]
6.37	CS(=O)(=O)N1CCc2c(c(-c3ccc(Cl)c(C#Cc4ccc(CNCc5ccccc5)cc4)c3)nn2CCCN2CCOCC2)C1 [Example 74, Benzyl-(4-{2-chloro-5-[5-methanesulfonyl-1-(3-morpholin-4-yl-propyl)-4,5,6,7-tetrahydro-1H-pyrazolo[4,3-c]pyridin-3-yl]-phenylethynyl}-benzyl)-amine]
6.57	CS(=O)(=O)N1CCc2c(c(-c3ccc(Cl)c(C#Cc4ccc(CC#N)cc4)c3)nn2CCCN2CCOCC2)C1 [Example 3, (4-{2-Chloro-5-[5-methanesulfonyl-1-(3-morpholin-4-yl-propyl)-4,5,6,7-tetrahydro-1H-pyrazolo[4,3-c]pyridin-3-yl]-phenylethynyl}-phenyl)-acetonitrile]

More lines, now with the values behind:

Structure (SMILES)	pIC50
CS(=O)(=O)N1CCc2c(c(-c3ccc(Cl)c(C#Cc4cccc5c4CNCC5)c3)nn2CCCN2CCOCC2)C1 [Example 366, 8-({2-Chloro-5-[5-(methylsulfonyl)-1-(3-morpholin-4-ylpropyl)-4,5,6,7-tetrahydro-1H-pyrazolo[4,3-c]pyridin-3-yl]phenyl}ethynyl)-1,2,3,4-tetrahydroisoquinoline]	6.17
CS(=O)(=O)N1CCc2c(c(-c3ccc(Cl)c(C#Cc4ccc(Cl)cc4)c3)nn2CC(O)CN2CCC(C(N)=O)CC2)C1 (stereo not drawn) [Example 128, 1-(3-{3-[4-Chloro-3-(4-chloro-phenylethynyl)-phenyl]-5-methanesulfonyl-4,5,6,7-tetrahydro-pyrazolo[4,3-c]pyridin-1-yl}-2-hydroxy-propyl)-piperidine-4-carboxylic acid amide]	6.96
COC(=O)[C@@H]1Cc2ccc(C#Cc3cc(-c4nn(CCCN5CCOCC5)c5c4CN(S(C)(=O)=O)CC5)ccc3Cl)cc2CN1C(=O)OC(C)(C)C [Example 190, 2-(1,1-Dimethylethyl) 3-methyl (3S)-7-({2-chloro-5-[5-(methylsulfonyl)-1-(3-morpholin-4-ylpropyl)-4,5,6,7-tetrahydro-1H-pyrazolo[4,3-c]pyridin-3-yl]phenyl}ethynyl)-3,4-dihydroisoquinoline-2,3(1H)-dicarboxylate]	5.95
CS(=O)(=O)N1CCc2c(c(-c3ccc(Cl)c(CCCCN4CCCC4)c3)nn2CCCN2CCC(N3CCCC3=O)CC2)C1 [Example 109, 1-[1-(3-{3-[4-Chloro-3-(4-pyrrolidin-1-yl-butyl)-phenyl]-5-methanesulfonyl-4,5,6,7-tetrahydro-pyrazolo[4,3-c]pyridin-1-yl}-propyl)-piperidin-4-yl]-pyrrolidin-2-one]	5.64
CS(=O)(=O)N1CCc2c(c(-c3ccc(Cl)c(CCc4ccc(Cl)cc4)c3)nn2CC(O)CN2CCC3(CCNC3=O)CC2)C1 (stereo not drawn) [Example 148, 8-[3-(3-{4-Chloro-3-[2-(4-chloro-phenyl)-ethyl]-phenyl}-5-methanesulfonyl-4,5,6,7-tetrahydro-pyrazolo[4,3-c]pyridin-1-yl)-2-hydroxy-propyl]-2,8-diaza-spiro[4.5]decan-1-one]	7.10

Same assay, conditions: CatS IC50

Structure (SMILES)	pIC50
CS(=O)(=O)N1CCc2c(c(-c3ccc(Cl)c(C#Cc4ccc(CNCc5ccc(Cl)cc5)cc4)c3)nn2CCCN2CCNCC2)C1 [Example 368, 1-[4-({2-Chloro-5-[5-(methylsulfonyl)-1-(3-piperazin-1-ylpropyl)-4,5,6,7-tetrahydro-1H-pyrazolo[4,3-c]pyridin-3-yl]phenyl}ethynyl)phenyl]-N-[(4-chlorophenyl)methyl]methanamine]	6.48
NC(=O)N1CCc2c(c(-c3ccc(Cl)c(C#Cc4ccc5c(c4)CN(Cc4ccc(Cl)cc4)CC5)c3)nn2CCCN2CCOCC2)C1 [Example 465, 3-[4-Chloro-3-({2-[(4-chlorophenyl)methyl]-1,2,3,4-tetrahydroisoquinolin-7-yl}ethynyl)phenyl]-1-(3-morpholin-4-ylpropyl)-1,4,6,7-tetrahydro-5H-pyrazolo[4,3-c]pyridine-5-carboxamide]	6.82
NC(=O)N1CCc2c(c(-c3ccc(Cl)c(C#Cc4cccc(CNCc5cccc(Cl)c5)c4)c3)nn2CCCN2CCSCC2)C1 [Example 514, 3-(4-Chloro-3-{[3-({[(3-chlorophenyl)methyl]amino}methyl)phenyl]ethynyl}phenyl)-1-(3-thiomorpholin-4-ylpropyl)-1,4,6,7-tetrahydro-5H-pyrazolo[4,3-c]pyridine-5-carboxamide]	6.85
COc1ccccc1C#Cc1cc(-c2nn(CCCN3CCOCC3)c3c2CN(S(C)(=O)=O)CC3)ccc1Cl [Example 24, 3-[4-Chloro-3-(2-methoxy-phenylethynyl)-phenyl]-5-methanesulfonyl-1-(3-morpholin-4-yl-propyl)-4,5,6,7-tetrahydro-1H-pyrazolo[4,3-c]pyridine]	6.25
CC(=O)OCC(=O)N1CCc2c(c(-c3ccc(Cl)c(C#Cc4ccc(Cl)cc4)c3)nn2CCCN2CCOCC2)C1 [Example 142, Acetic acid 2-[3-[4-chloro-3-(4-chloro-phenylethynyl)-phenyl]-1-(3-morpholin-4-yl-propyl)-1,4,6,7-tetrahydro-pyrazolo[4,3-c]pyridin-5-yl]-2-oxo-ethyl ester]	6.55
NC(=O)N1CCc2c(c(-c3ccc(Cl)c(C#Cc4ccc(Cl)c(C(=O)NCCN5CCOCC5)c4)c3)nn2CCCN2CCCCC2)C1 [Example 590, 3-[4-Chloro-3-({4-chloro-3-[(2-morpholin-4-ylethyl)carbamoyl]phenyl}ethynyl)phenyl]-1-(3-piperidin-1-ylpropyl)-1,4,6,7-tetrahydro-5H-pyrazolo[4,3-c]pyridine-5-carboxamide]	7.15
CS(=O)(=O)N1CCc2c(c(-c3ccc(Cl)c(C#Cc4ccc(CNCc5ccc(Cl)cc5)cc4)c3)nn2CCCN2CCC(N3CCCC3=O)CC2)C1 [Example 328, 1-(1-{3-[3-(4-Chloro-3-{[4-({[(4-chlorophenyl)methyl]amino}methyl)phenyl]ethynyl}phenyl)-5-(methylsulfonyl)-4,5,6,7-tetrahydro-1H-pyrazolo[4,3-c]pyridin-1-yl]propyl}piperidin-4-yl)pyrrolidin-2-one]	7.70

Same assay, conditions: CatS IC50, Table 2; average of results obtained

Structure (SMILES)	pIC50
CS(=O)(=O)N1CCc2c(c(-c3ccc(Cl)c(C#Cc4ccncc4)c3)nn2CCCN2CCOCC2)C1 [Example 20, 3-(4-Chloro-3-pyridin-4-ylethynyl-phenyl)-5-methanesulfonyl-1-(3-morpholin-4-yl-propyl)-4,5,6,7-tetrahydro-1H-pyrazolo[4,3-c]pyridine]	6.27
